Measured values taken from patent US20240034727A1, “IMIDAZOLE COMPOUNDS AS INHIBITORS OF ENPP1” (STINGRAY THERAPEUTICS, INC., priority 2020, published 2024).

Target: Recombinant Human ENPP-1 Protein (Homo sapiens (Human), UniProt P22413)
Assay: ENPP1 Inhibition Assay
Assay type: biochemical
Details: substrate Thymidine 5′-monophosphate p-nitrophenol ester; pH 9.0; 37° C. for 45 minutes; absorbance at 405 nm
Protocol: Assay Buffer: 1 mM CaCl2), 0.2 mM ZnCl2, 50 mM Tris, pH 9.0. Substrate: 8 mM Thymidine 5′-monophosphate p-nitrophenol ester sodium salt (Sigma Cat #T4510). Enzyme: […] Recombinant Human ENPP-1 Protein (R&D Cat #6136-EN-010) in DMSO in 96-well clear assay plates.
An eight point serial dilution of drugs was prepared in 10× in assay buffer with the final assay concentrations starting at 10 μM, 3 μM, 1 μM, 0.3 μM and 0 μM. A dilution of DMSO was included as a control. The assay plate was set up as follows with each well in duplicate: 81 μL assay buffer+10 μL ENPP1 inhibitor or DMSO+5 μL Substrate+4 μL Enzyme. Both the enzyme and substrate was added to opposite sides of the well to ensure that there was no interaction until all wells had both components. The plate was then centrifuged gently for 10 seconds, followed by an incubation at 37° C. for 45 minutes. The reaction was quantified by measuring absorbance at 405 nm using the Envision.
IC50 values are determined using GraphPad Prism 5 software. The data were entered as an X-Y plot into the software as percent inhibition for each concentration of the drug. The concentration values of the drug were log transformed and the nonlinear regression was carried out using the “sigmoidal dose-response (variable slope)” option within the GraphPad software to model the data and calculate IC50 values. The IC50 values reported are the concentration of drug at which 50% inhibition was reached.

Sequence of Recombinant Human ENPP-1 Protein (P22413 whole entry): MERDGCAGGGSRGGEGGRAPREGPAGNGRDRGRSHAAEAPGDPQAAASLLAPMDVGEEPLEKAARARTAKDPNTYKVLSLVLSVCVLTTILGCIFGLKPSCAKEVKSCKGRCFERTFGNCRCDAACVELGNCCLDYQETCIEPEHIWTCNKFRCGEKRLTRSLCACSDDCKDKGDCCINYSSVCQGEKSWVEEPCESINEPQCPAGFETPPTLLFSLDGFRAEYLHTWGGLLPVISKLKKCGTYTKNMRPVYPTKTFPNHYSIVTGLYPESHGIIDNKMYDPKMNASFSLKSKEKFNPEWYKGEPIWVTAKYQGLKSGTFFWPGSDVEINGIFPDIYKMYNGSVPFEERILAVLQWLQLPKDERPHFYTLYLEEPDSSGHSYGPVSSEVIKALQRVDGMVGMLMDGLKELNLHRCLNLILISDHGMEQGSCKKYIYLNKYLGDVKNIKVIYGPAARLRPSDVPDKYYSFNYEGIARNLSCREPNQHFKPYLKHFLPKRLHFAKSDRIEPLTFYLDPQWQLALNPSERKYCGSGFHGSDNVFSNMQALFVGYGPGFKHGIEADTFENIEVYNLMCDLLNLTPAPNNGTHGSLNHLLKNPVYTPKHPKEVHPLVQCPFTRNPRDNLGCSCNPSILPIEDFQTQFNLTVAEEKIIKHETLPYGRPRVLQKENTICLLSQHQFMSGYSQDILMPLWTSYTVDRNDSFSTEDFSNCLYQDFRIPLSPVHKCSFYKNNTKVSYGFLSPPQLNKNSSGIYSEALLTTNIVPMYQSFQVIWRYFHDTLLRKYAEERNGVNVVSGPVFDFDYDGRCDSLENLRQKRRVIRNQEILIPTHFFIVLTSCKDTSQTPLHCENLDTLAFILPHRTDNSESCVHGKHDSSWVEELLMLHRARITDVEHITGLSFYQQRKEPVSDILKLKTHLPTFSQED

IC50 [µM]	Compound
< 0.2	COc1ccc(NC(=O)CSc2nc(C(N)=O)c[nH]2)cc1OC [Compound I-1, 2-((2-((3,4-dimethoxyphenyl)amino)-2-oxoethyl)thio)-1H-imidazole-4-carboxamid]
0.2 to 10	CNC(=O)c1c[nH]c(SCC(=O)Nc2ccc(OC)c(OC)c2)n1 [Compound I-2, 2-((2-((3,4-dimethoxyphenyl)amino)-2-oxoethyl)thio)-N-methyl-1H-imidazole-4-carboxamide]
< 0.2	COc1ccc(NC(=O)CSc2nc(C(=O)O)c[nH]2)cc1OC [Compound I-3, 2-((2-((3,4-dimethoxyphenyl)amino)-2-oxoethyl)thio)-1H-imidazole-4-carboxylic acid]
< 0.2	COc1ccc(NC(=O)CSc2nc(C#N)c[nH]2)cc1OC [Compound I-4, 2-((4-cyano-1H-imidazol-2-yl)thio)-N-(3,4-dimethoxyphenyl)acetamide]
< 0.2	COc1ccc(NC(=O)CSc2nc(/C(N)=N/O)c[nH]2)cc1OC [Compound I-5, (Z)-N-(3,4-dimethoxyphenyl)-2-((4-(N′-hydroxycarbamimidoyl)-1H-imidazol-2-yl)thio)acetamide]
< 0.2	CCOC(=O)c1c[nH]c(SCC(=O)Nc2ccc(OC)c(OC)c2)n1 [Compound I-6, ethyl 2-((2-((3,4-dimethoxyphenyl)amino)-2-oxoethyl)thio)-1H-imidazole-4-carboxylate]
0.2 to 10	O=C(CSc1nc(C(=O)O)c[nH]1)Nc1ccc(Cl)cc1F [Compound I-7, 2-((2-((4-chloro-2-fluorophenyl)amino)-2-oxoethyl)thio)-1H-imidazole-4-carboxylic acid]
> 10	COc1ccc(NC(=O)CSc2nc(C(=O)O)c[nH]2)c(OC)c1F [Compound I-9, 2-((2-((3-fluoro-2,4-dimethoxyphenyl)amino)-2-oxoethyl)thio)-1H-imidazole-4-carboxylic acid]
< 0.2	COc1ccc(NC(=O)CSc2nc(C(=O)O)c[nH]2)cc1F [Compound I-10, 2-((2-((3-fluoro-4-methoxyphenyl)amino)-2-oxoethyl)thio)-1H-imidazole-4-carboxylic acid]
> 10	O=C(CSc1nc(C(=O)O)c[nH]1)NCc1cccc(Br)c1 [Compound I-11, 2-((2-((3-bromobenzyl)amino)-2-oxoethyl)thio)-1H-imidazole-4-carboxylic acid]
> 10	O=C(CSc1nc(C(=O)O)c[nH]1)Nc1c(F)cccc1F [Compound I-13, 2-((2-((2,6-difluorophenyl)amino)-2-oxoethyl)thio)-1H-imidazole-4-carboxylic acid]
< 0.2	COc1cc(NC(=O)CSc2nc(C(=O)O)c[nH]2)ccc1Cl [Compound I-14, 2-((2-((4-chloro-3-methoxyphenyl)amino)-2-oxoethyl)thio)-1H-imidazole-4-carboxylic acid]
> 10	COc1ccc(CNC(=O)CSc2nc(C(=O)O)c[nH]2)c(OC)c1 [Compound I-15, 2-((2-((2,4-dimethoxybenzyl)amino)-2-oxoethyl)thio)-1H-imidazole-4-carboxylic acid]
0.2 to 10	COc1ccc(Oc2ccc(NC(=O)CSc3nc(C(=O)O)c[nH]3)cc2)cc1 [Compound I-16, 2-((2-((4-(4-methoxyphenoxy)phenyl)amino)-2-oxoethyl)thio)-1H-imidazole-4-carboxylic acid]
> 10	Cc1ccc(F)c(NC(=O)CSc2nc(C(=O)O)c[nH]2)c1 [Compound I-17, 2-((2-((2-fluoro-5-methylphenyl)amino)-2-oxoethyl)thio)-1H-imidazole-4-carboxylic acid]
> 10	O=C(CSc1nc(C(=O)O)c[nH]1)Nc1c(Cl)cccc1Cl [Compound I-18, 2-((2-((2,6-dichlorophenyl)amino)-2-oxoethyl)thio)-1H-imidazole-4-carboxylic acid]
> 10	Cc1cccc(NC(=O)CSc2nc(C(=O)O)c[nH]2)c1C [Compound I-19, 2-((2-((2,3-dimethylphenyl)amino)-2-oxoethyl)thio)-1H-imidazole-4-carboxylic acid]

IC50 [µM]	Compound
0.2 to 10	O=C(CSc1nc(C(=O)O)c[nH]1)Nc1ccc(Cl)cc1 [Compound I-20, 2-((2-((4-chlorophenyl)amino)-2-oxoethyl)thio)-1H-imidazole-4-carboxylic acid]
> 10	O=C(CSc1nc(C(=O)O)c[nH]1)NCc1ccc(Cl)cc1 [Compound I-22, 2-((2-((4-chlorobenzyl)amino)-2-oxoethyl)thio)-1H-imidazole-4-carboxylic acid]
0.2 to 10	O=C(CSc1nc(C(=O)O)c[nH]1)Nc1ccc(Br)cc1 [Compound I-23, 2-((2-((4-bromophenyl)amino)-2-oxoethyl)thio)-1H-imidazole-4-carboxylic acid]
> 10	O=C(CSc1nc(C(=O)O)c[nH]1)Nc1ccc(N2CCOCC2)cc1 [Compound I-24, 2-((2-((4-morpholinophenyl)amino)-2-oxoethyl)thio)-1H-imidazole-4-carboxylic acid]
0.2 to 10	COc1cc(NC(=O)CSc2nc(C(=O)O)c[nH]2)cc(OC)c1 [Compound I-25, 2-((2-((3,5-dimethoxyphenyl)amino)-2-oxoethyl)thio)-1H-imidazole-4-carboxylic acid]
> 10	COc1ccc(NC(=O)CSc2nc(C(=O)O)c[nH]2)c(OC)c1OC [Compound I-26, 2-((2-oxo-2-((2,3,4-trimethoxyphenyl)amino)ethyl)thio)-1H-imidazole-4-carboxylic acid]
0.2 to 10	COc1cc(NC(=O)CSc2nc(C(=O)O)c[nH]2)c(OC)cc1Cl [Compound I-27, 2-((2-((4-chloro-2,5-dimethoxyphenyl)amino)-2-oxoethyl)thio)-1H-imidazole-4-carboxylic acid]
< 0.2	COc1ccc(NC(=O)CSc2nc(-c3nnn[nH]3)c[nH]2)cc1OC [Compound I-28, 2-((4-(1H-tetrazol-5-yl)-1H-imidazol-2-yl)thio)-N-(3,4-dimethoxyphenyl)acetamide]
0.2 to 10	COc1ccc(NC(=O)CSc2nc(C(=O)OCCN(C)C)c[nH]2)cc1OC [Compound I-29, 2-(dimethylamino)ethyl 2-((2-((3,4-dimethoxyphenyl)amino)-2-oxoethyl)thio)-1H-imidazole-4-carboxylate]
< 0.2	COc1ccc(NC(=O)CSc2nc(C(=O)OCC(O)CO)c[nH]2)cc1OC (stereo not drawn) [Compound I-30, 2,3-dihydroxypropyl 2-((2-((3,4-dimethoxyphenyl)amino)-2-oxoethyl)thio)-1H-imidazole-4-carboxylate]
> 10	Cc1ccc(NC(=O)CSc2nc(C(=O)O)c[nH]2)cc1C [Compound I-31, 2-((2-((3,4-dimethylphenyl)amino)-2-oxoethyl)thio)-1H-imidazole-4-carboxylic acid]
0.2 to 10	COc1ccc(CNC(=O)CSc2nc(C(=O)O)c[nH]2)cc1OC [Compound I-32, 2-((2-((3,4-dimethoxybenzyl)amino)-2-oxoethyl)thio)-1H-imidazole-4-carboxylic acid]
< 0.2	COc1ccc(NC(=O)CSc2nc(C(=O)O)c[nH]2)cc1C#N [Compound I-33, 2-((2-((3-cyano-4-methoxyphenyl)amino)-2-oxoethyl)thio)-1H-imidazole-4-carboxylic acid]
< 0.2	COc1ccc(NC(=O)CSc2nc(C(=O)O)c[nH]2)cc1Br [Compound I-34, 2-((2-((3-bromo-4-methoxyphenyl)amino)-2-oxoethyl)thio)-1H-imidazole-4-carboxylic acid]
0.2 to 10	COc1ccc(Br)cc1NC(=O)CSc1nc(C(=O)O)c[nH]1 [Compound I-36, 2-((2-((5-bromo-2-methoxyphenyl)amino)-2-oxoethyl)thio)-1H-imidazole-4-carboxylic acid]
0.2 to 10	COc1ccc(CNC(=O)CSc2nc(C(=O)O)c[nH]2)cc1 [Compound I-37, 2-((2-((4-methoxybenzyl)amino)-2-oxoethyl)thio)-1H-imidazole-4-carboxylic acid]
